Test results as given in patent publication US5039684A, “Tetrazole amide derivatives of heterocyclic alkenyl acid and their use as antiallergic substances” (Valeas S. p. A., priority 1989, dated 1991).
Structures can show the parent of a compound that is named as a salt.

What was measured:
[1] = test system: passive cutaneous anaphylaxis; test: PCA test on the rat, intravenous administration just before challenge with antigen; format: in vivo, rat (male Sprague Dawley); settings: immediately before challenge; for inhibition in vivo at 1 mg/kg / inhibition in vivo at 0.3 mg/kg: read-out: inhibition (%); for ED50: read-out: ED50 (conf. lim) P = 0.05
Procedure: (§1) The serum, obtained from rats actively sensitized with ovalbumin (antigen) and suitably diluted, was injected intradermically into the shaven back of male Sprague Dawley rats (2 wheals per rat).
(§2) The rats were treated intravenously after 24 hours with a solution of ovalbumin and Evans blue. Thirty minutes later they were killed and the diameter and intensity of the blue ring formed at the site of the intradermic injection were measured.
(§3) For each treated group (5 per group) the % inhibition was then calculated with respect to the control group.
The pharmacological screening was effected by administering the compounds of the present invention intravenously and orally.
(§4) For intravenous administration (2 ml/kg), those compounds in which R1 =H (see formula I) were dissolved in an aqueous 1% NaHCO3 solution whereas for oral administration (4 ml/Kg) they were either suspended in 0.5% carboxymethylcellulose or dissolved in an aqueous 3% NaHCO3 solution.

[2] = test system: passive cutaneous anaphylaxis; test: PCA test on the rat, oral administration before challenge with antigen; format: in vivo, rat (male Sprague Dawley); settings: for inhibition in vivo at 10 mg/kg / inhibition in vivo at 30 mg/kg / inhibition in vivo at 3 mg/kg: read-out: inhibition (%); for ED50: 5 min, Table 2, oral administration, read-out: ED50 (conf. lim) P = 0.05; for ED50 OS/ED50 iv: oral 5 minutes before challenge / i.v. immediately before challenge; for inhibition (%): oral
Procedure: The serum, obtained from rats actively sensitized with ovalbumin (antigen) and suitably diluted, was injected intradermically into the shaven back of male Sprague Dawley rats (2 wheals per rat). The rats were treated intravenously after 24 hours with a solution of ovalbumin and Evans blue. Thirty minutes later they were killed and the diameter and intensity of the blue ring formed at the site of the intradermic injection were measured. […] The pharmacological screening was effected by administering the compounds of the present invention intravenously and orally. For intravenous administration (2 ml/kg), those compounds in which R1 =H (see formula I) were dissolved in an aqueous 1% NaHCO3 solution whereas for oral administration (4 ml/Kg) they were either suspended in 0.5% carboxymethylcellulose or dissolved in an aqueous 3% NaHCO3 solution.

[3] = test system: passive cutaneous anaphylaxis; test: PCA test on the rat, time response curve after oral administration; format: in vivo, rat (male Sprague Dawley); settings: Rattus norvegicus, oral; for inhibition in vivo at 30 mg/kg: 30 mg/kg/os, read-out: inhibition %; for inhibition in vivo at 10 mg/kg: 10 mg/kg/os
Procedure: as §1, §2, §3, §4

[4] = Acute toxicity in the mouse, oral administration; format: in vivo; settings: mouse, in vivo, po, 1000 mg/kg, oral, 1000 mg/kg/os; read-out: mortality (%EAD)
Procedure: (§5) Acute toxicity was evaluated in the mouse by administering the compounds orally at scalar doses to a maximum of 1000 mg/kg to evaluate the 50% lethal dose (LD50). The compounds were administered in carboxymethylcellulose (0.5%) in a volume of […] to male mice (Swiss stock) of average weight 20 g.

mouse = test: Acute toxicity in the mouse, oral administration; format: in vivo
Procedure: as §5

[5] = Rattus norvegicus, iv, 10 mg/kg
[6] = Rattus norvegicus, po, 10 mg/kg, 5 minutes before challenge
[7] = Rattus norvegicus, po, 30 mg/kg, 5 minutes before challenge
[8] = Rattus norvegicus, po, 5 minutes before challenge
[9] = 3 mg/kg, 5 minutes before challenge
[10] = 5 min, 5 minutes before challenge
[11] = 0.25 h, 15 minutes before challenge
[12] = 0.5 h, 30 minutes before challenge
[13] = 1 h, 60 minutes before challenge
[14] = 2 h, 120 minutes before challenge
[15] = Rattus norvegicus, po, 3 mg/kg, 5 minutes before challenge

SMILES	inhibition in vivo at 1 mg/kg ([1]; Rattus norvegicus, iv, 1 mg/kg)	inhibition in vivo at 3 mg/kg ([1]; Rattus norvegicus, iv, 3 mg/kg)	inhibition in vivo at 10 mg/kg [1, 5]	ED50 ([1]; Rattus norvegicus, iv)	inhibition in vivo at 10 mg/kg [2, 6]	inhibition in vivo at 30 mg/kg [2, 7]	inhibition in vivo at 30 mg/kg [3, 10]	inhibition in vivo at 30 mg/kg [3, 11]	inhibition in vivo at 30 mg/kg [3, 12]	inhibition in vivo at 30 mg/kg [3, 13]	inhibition in vivo at 30 mg/kg [3, 14]	mortality [4]	inhibition in vivo at 3 mg/kg [2, 15]	No. (dead) (mouse; oral, 1000 mg/kg/os, 8 treated)	inhibition in vivo at 0.3 mg/kg ([1]; Rattus norvegicus, iv)	also measured
Cc1ccc(/C=C/C(=O)Nc2nn[nH]n2)s1 [VAL 47-005, N-1H-tetrazol-5-yl-[3-[5-methyl-(2-thienyl)]] acrylamide trans isomer]	20.3%	43.4%	89.4%	2.99 mg/kg	43.8%	75.3%	75.5%	61.4%	37.5%	0%	11.4%	0%				ED50 [2, 8]: 12.4 mg/kg; ED50 OS/ED50 iv [2]: 4.13; inhibition (%) [2, 9]: 9.6%; No. (dead) (mouse; mouse, in vivo, po, 1000 mg/kg): 0
O=C(/C=C/c1ccc[nH]1)Nc1nn[nH]n1 [VAL 47-078, N-1H-tetrazol-5-yl-[3-(2-pyrrole)]-acrylamide trans isomer]	11.2%	41.3%	78.6%	3.85 mg/kg	35.8%	38.3%	31.4%	29.3%	9%	4.3%	0.5%	0%	7.4%	0		
Cc1ccc(/C=C/C(=O)Nc2nn[nH]n2)s1 [VAL 47-005Na, N-1H-tetrazol-5-yl-[3-[5-methyl-(2-thienyl)]] acrylamide sodium salt trans isomer]														0		inhibition (%) ([1]; i.v., 1 mg/kg): 16.5%; inhibition (%) ([1]; i.v., 3 mg/kg): 40.7%; inhibition (%) ([1]; i.v., 10 mg/kg): 78.0%; ED50 (conf. lim) P = 0.05 ([1]; i.v.): 3.74 (2.89-4.85) mg/kg/iv; inhibition (%) [2, 9]: 26.7%; inhibition (%) ([2]; 10 mg/kg, 5 minutes before challenge): 54.7%; inhibition (%) ([2]; 30 mg/kg, 5 minutes before challenge): 65.8%; mortality (%EAD) (mouse; oral, 1000 mg/kg/os): 0%
O=C(/C=C/c1c[nH]c2ccccc12)Nc1nn[nH]n1 [VAL 47-022, N-1H-tetrazol-5-yl-[3-(3-indolyl)]-acrylamide trans isomer]	43.4%	97.1%		1.01 mg/kg	46.6%	40.8%	62.2%	52.7%	33.3%	19.4%	8.9%	0%	17.8%	0	3.9%	
O=C(/C=C/c1cccnc1)Nc1nn[nH]n1 [VAL 47-017, N-1H-tetrazol-5-yl-[3-(3-pyridyl)]-acrylamide trans isomer]	71.6%	93.9%	100%	0.36 mg/kg	22.8%	48.3%	45%	7.3%	1%	0%	0%	0%	21.7%	0	45.7%	
O=C(/C=C/c1ccc(Br)s1)Nc1nn[nH]n1 [VAL 47-008, N-1H-tetrazol-5-yl-[3-[5-bromo-(2-thienyl)]]-acrylamide trans isomer]	0%	8.6%	31.9%	12.8 mg/kg	26.9%	43.7%	37.7%	16%	10.9%	3.4%	2.3%	0%	32.5%	0		inhibition in vivo at 30 mg/kg ([1]; Rattus norvegicus, iv, 30 mg/kg): 82.3%
O=C(/C=C/c1cccs1)Nc1nn[nH]n1 [VAL 47-024, N-1H-tetrazol-5-yl-[3-(2-thienyl)] acrylamide trans isomer]	18.1%	64.9%	100%	2.29 mg/kg	53.8%	53.3%	43.5%	52.7%	46.7%	30.4%	10.9%	0%	30.2%	0		
O=C(/C=C/c1ccncc1)Nc1nn[nH]n1 [VAL 47-042, N-1H-tetrazol-5-yl-[3-(4-pyridyl)]-acrylamide trans isomer]	41.7%	77.8%		1.28 mg/kg	5.3%	21.4%	6.3%	0%	0.5%	0%	0%	0%	0%	0	3.9%	
O=C(/C=C/c1ccccn1)Nc1nn[nH]n1 [VAL 47-055, N-1H-tetrazol-5-yl-[3-(2-pyridyl)]-acrylamide trans isomer]	47.5%	85.9%		1.54 mg/kg	52.9%	81%						0%	28.3%		5.6%	inhibition in vivo at 1 mg/kg ([2]; Rattus norvegicus, po, 1 mg/kg, 5 minutes before challenge): 22.5%; ED50 [2, 8]: 7.94 mg/kg; ED50 OS/ED50 iv [2]: 5.15; inhibition in vivo at 10 mg/kg [3, 10]: 45.6%; inhibition in vivo at 10 mg/kg [3, 11]: 0.5%; inhibition in vivo at 10 mg/kg [3, 12]: 0%; inhibition in vivo at 10 mg/kg [3, 13]: 4.7%; inhibition in vivo at 10 mg/kg [3, 14]: 0%; No. (dead) (mouse; mouse, in vivo, po, 1000 mg/kg): 0
O=C(/C=C/c1ccsc1)Nc1nn[nH]n1 [VAL 47-034, N-1H-tetrazol-5-yl-[3-(3-thienyl)]-acrylamide trans isomer]	1.3%	48.6%	63.5%	4.74 mg/kg	0%	53.4%	64.5%	36%	41.9%	6.9%	0%	25%	0%	2		
